# Assays:
# [1] = test system: neuron-Schwann cell co-cultures injured with cisplatin; assay: Sensory neurite extension and myelination in cisplatin-injured primary dorsal root ganglia cultures; format: cell-based, rat; set-up: key to Significant promotion of Neurite Network Extension of Sensory Neurons / Significant promotion of Myelination of Sensory neurons by Schwann Cells: “NS” indicates the treatment did not have a significant effect; “+” indicates the treatment had a significant effect; details: for Significant promotion of Myelination of Sensory neurons by Schwann Cells / Significant promotion of Neurite Network Extension of Sensory Neurons: +Cisplatin injury (10 μg/ml, 24 hours), vs Cisplatin-treated group
# Method: (§1) To assess the effects of test compound treatment on these structures central to neuropathic pathology, peripheral sensory neurons were modeled using dissociated primary cultures of neurons and Schwann cells collected from fetal rats. Fetal rats were collected from pregnant females after 15 days of gestation, and the dorsal root ganglion was dissociated via trypsin digestion and mechanical disruption. The resulting cells were plated and allowed to grow for 7 days. On day 7 in culture, ascorbic acid at a concentration of 50 μM was added to the culture to promote myelination of sensory neurons by Schwann cells.
# To model the effects of neuropathic injury in sensory neurons and associated Schwann cells, cultures were injured with the chemotherapy drug cisplatin. These cultures were prepared identically to those described above. In this system, Compound 5a, HGF, and β-estradiol treatments began on culture day 19. Also on culture day 19, cisplatin (10 μg/ml) was added to the cultures for 24 hours. On culture day 20, cisplatin was removed from the media while test compound treatments were replaced for 24 hours. On day 21 in culture, cells were fixed and processed for immunodetection as described above.
# (§2) 30 fluorescent images were captured for each treatment group and images were quantified by automated image analysis. Neurite network extension was quantified as the total length of MAP2-positive neurites per cell measured in μm. Myelination by Schwann cells was quantified by the area of overlap between MAP2-positive neurites and MAG-positive myelin wrapping measured in μm^2. Statistical analysis was performed as a one-way ANOVA with Fisher's LSD post-test against either vehicle- or Cisplatin-treated groups respectively.
# [2] = test system: neuron-Schwann cell co-cultures; assay: Sensory neurite extension and myelination in healthy primary dorsal root ganglia cultures; format: cell-based, rat; set-up: key to Significant promotion of Neurite Network Extension of Sensory Neurons / Significant promotion of Myelination of Sensory neurons by Schwann Cells: “NS” indicates the treatment did not have a significant effect; “+” indicates the treatment had a significant effect; details: for Significant promotion of Myelination of Sensory neurons by Schwann Cells / Significant promotion of Neurite Network Extension of Sensory Neurons: Healthy cultures, vs vehicle
# Method: as §1
# To model the effects of Compound 5a in the normal peripheral nervous system, neuron-Schwann cell co-cultures were treated with Compound 5a in combination with low doses of recombinant hepatocyte growth factor (HGF). On day 8 in culture, experimental treatments were added to culture media. These treatments included HGF with or without Compound 5a. Some cultures were treated with the steroid hormone B-estradiol to serve as a positive control. Treatments were applied every other day, and on day 21 in culture the cultures were fixed with ethanol and processed for immunodetection of both microtubule-associate protein 2 (MAP2) to reveal neurons and their neurites as well as myelin-associated glycoprotein (MAG) to reveal Schwann cells and the extent of their myelination of cultured neurites. Cells were counterstained with Hoechst DNA dye to identify individual cells.
# as §2
# [3] = test system: STZ DNP rats; assay: Mechanical allodynia rescue assay (Von Frey paw withdrawal threshold), Example B1; format: in vivo, Sprague Dawley rats; set-up: key to Efficacy: rescue of mechanical allodynia behavior as measured by paw withdrawal threshold: NS indicates treatment did not significantly affect paw withdrawal threshold vs disease control.; + indicates p < 0.05 vs disease control.; ++ indicates p < 0.01 vs disease control.; +++ indicates p < 0.001 vs disease control; details: for Efficacy: rescue of mechanical allodynia behavior as measured by paw withdrawal threshold: study day 28 after 14 days of treatment, p vs disease control; for rescue of the mechanical allodynia behavior as measured by paw withdrawal threshold: STZ DNP rats
# Excerpt: Hyperglycemic rats consistently develop neuropathic pain-associated behaviors including mechanical allodynia. Allodynia refers to a type of neuropathic pain characterized by increased sensitivity to stimuli that are not normally painful. Mechanical allodynia is quantified in rats by determination of the force required to induce a withdrawal of the paw and is negatively associated with allodynia such that, the lower the force required to induce paw withdrawal, the greater the pain behavior.
# (§3) A series of studies were performed to determine the ability of HGF/MET positive modulator compounds to reduce the mechanical allodynia pain behaviors in hyperglycemic rats. A single dose of STZ (55 mg/kg via intravenous (IV)) was administered to induce a Type I diabetic hyperglycemia in male Sprague Dawley rats. Hyperglycemia was confirmed 4 days after STZ administration, with blood glucose levels above 200 mg/dL considered successful model induction. 14 days after disease induction, test compound treatment was initiated and continued as daily compound administration over the remaining course of the study. Route and dose for each compound were determined by pharmacokinetic and distribution modelling. Control groups included animals with no diabetic induction (Sham control), animals with diabetes but treated only with formulation vehicle (DNP (diabetic peripheral neuropathy) control), and disease animals treated with pregabalin (30 mg/kg via PO), which is known to reduce neuropathic pain behaviors.
# (§4) Changes to neuropathic pain behaviors were assessed after 14 days of compound treatment on study day 28. Mechanical allodynia was tested by placing each animal on an elevated wire grid and stimulating the plantar surface of the right rear paw with a series of filaments corresponding to increasing orders of force, reaching a maximum force of 60 grams (Aesthesio manual Von Frey filaments). The force of the filament that causes paw withdrawal was considered the paw withdrawal threshold in grams. Pain sensitivity in response to thermal hyperalgesia was determined by using hot plate method and represented as paw withdrawal latency (PWL). Rats were placed on the hot plate (52.5° C.), and the time taken to show the nocifensive behavior (either licking or jumping) of any of their paws was recorded. Statistical comparison of treatment groups to DNP control groups was performed by one-way ANOVA followed by Dunnett's multiple comparisons test.
# [4] = test system: STZ DNP rats; assay: Thermal hyperalgesia rescue assay (hot plate paw withdrawal latency), Example B1; format: in vivo, Sprague Dawley rats; set-up: key to Efficacy: rescue of thermal hyperalgesia behavior as measured by paw withdrawal latency: NS indicates treatment did not significantly affect paw withdrawal latency vs disease control.; + indicates p < 0.05 vs disease control.; ++ indicates p < 0.01 vs disease control.; +++ indicates p < 0.001 vs disease control; details: for Efficacy: rescue of thermal hyperalgesia behavior as measured by paw withdrawal latency: study day 28 after 14 days of treatment, hot plate 52.5° C., p vs disease control; for rescue of thermal allodynia behavior as measured by paw withdrawal latency: STZ DNP rats
# Method: as §3, §4
# [5] = injured cultures, positive control β-estradiol
# [6] = healthy cultures, positive control β-estradiol
# [7] = injured cultures, HGF alone at either 0.05 or 5 ng/ml
# [8] = healthy cultures, HGF alone at either 0.05 or 5 ng/ml
compound,measurement,setting,value
"C[C@]12CC[C@@H]3c4ccc(O)cc4CC[C@H]3[C@@H]1CC[C@@H]2O [β-estradiol, reference compound]",Significant promotion of Myelination of Sensory neurons by Schwann Cells,[1]; β-estradiol 150 nM,+
same,Significant promotion of Neurite Network Extension of Sensory Neurons,[1]; β-estradiol 150 nM,+
same,myelination of sensory neurons by Schwann cells,[1]; [5],significantly promoting
same,neurite network extension,[1]; [5],significantly promoting
same,Significant promotion of Myelination of Sensory neurons by Schwann Cells,[2]; β-estradiol 150 nM,+
same,Significant promotion of Neurite Network Extension of Sensory Neurons,[2]; β-estradiol 150 nM,+
same,myelination of sensory neurons by Schwann cells,[2]; [6],significantly promoting
same,neurite network extension,[2]; [6],significantly promoting
CCC(C)CN1CC2N(C(=O)c3ccc(OC(F)F)cc3)CCC(=O)N2[C@@H](C)C1=O (stereo partly shown) [Compound 2a],Efficacy: rescue of mechanical allodynia behavior as measured by paw withdrawal threshold,[3]; 0.00625 mg/kg PO daily,+ (+ indicates p < 0.05 vs disease control.)
same,Efficacy: rescue of mechanical allodynia behavior as measured by paw withdrawal threshold,[3]; 0.025 mg/kg PO daily,++ (++ indicates p < 0.01 vs disease control.)
same,Efficacy: rescue of mechanical allodynia behavior as measured by paw withdrawal threshold,[3]; 0.1 mg/kg PO daily,+++ (+++ indicates p < 0.001 vs disease control.)
same,Efficacy: rescue of mechanical allodynia behavior as measured by paw withdrawal threshold,[3]; 1 mg/kg PO daily,+++ (+++ indicates p < 0.001 vs disease control.)
same,rescue of the mechanical allodynia behavior as measured by paw withdrawal threshold,[3],significant rescue
same,Efficacy: rescue of thermal hyperalgesia behavior as measured by paw withdrawal latency,[4]; 0.00625 mg/kg PO daily,+ (+ indicates p < 0.05 vs disease control.)
same,Efficacy: rescue of thermal hyperalgesia behavior as measured by paw withdrawal latency,[4]; 0.025 mg/kg PO daily,NS
same,Efficacy: rescue of thermal hyperalgesia behavior as measured by paw withdrawal latency,[4]; 0.1 mg/kg PO daily,++ (++ indicates p < 0.01 vs disease control.)
same,Efficacy: rescue of thermal hyperalgesia behavior as measured by paw withdrawal latency,[4]; 1 mg/kg PO daily,NS
same,rescue of thermal allodynia behavior as measured by paw withdrawal latency,[4],significant rescue
"HGF: recombinant hepatocyte growth factor (HGF), added at low doses with or without Compound 5a",Significant promotion of Myelination of Sensory neurons by Schwann Cells,[1]; HGF 0.05 ng/ml alone,NS
same,Significant promotion of Neurite Network Extension of Sensory Neurons,[1]; HGF 0.05 ng/ml alone,NS
same,Significant promotion of Myelination of Sensory neurons by Schwann Cells,[1]; HGF 5 ng/ml alone,NS
same,Significant promotion of Neurite Network Extension of Sensory Neurons,[1]; HGF 5 ng/ml alone,NS
same,myelination,[1]; [7],did not significantly promote
same,neurite network extension,[1]; [7],did not significantly promote
same,Significant promotion of Myelination of Sensory neurons by Schwann Cells,[2]; HGF 0.05 ng/ml alone,NS
same,Significant promotion of Neurite Network Extension of Sensory Neurons,[2]; HGF 0.05 ng/ml alone,NS
same,Significant promotion of Myelination of Sensory neurons by Schwann Cells,[2]; HGF 5 ng/ml alone,NS
same,Significant promotion of Neurite Network Extension of Sensory Neurons,[2]; HGF 5 ng/ml alone,NS
same,myelination,[2]; [8],did not significantly promote
same,neurite network extension,[2]; [8],did not significantly promote
CCC(C)CN1CC2N(Cc3ccc(OC(F)F)cc3)CCC(=O)N2[C@@H](C)C1=O (stereo partly shown) [Compound 6a],Efficacy: rescue of mechanical allodynia behavior as measured by paw withdrawal threshold,[3]; 0.156 mg/kg PO daily,NS
same,Efficacy: rescue of mechanical allodynia behavior as measured by paw withdrawal threshold,[3]; 0.625 mg/kg PO daily,+ (+ indicates p < 0.05 vs disease control.)
same,Efficacy: rescue of mechanical allodynia behavior as measured by paw withdrawal threshold,[3]; 2.5 mg/kg PO daily,+++ (+++ indicates p < 0.001 vs disease control.)
same,Efficacy: rescue of mechanical allodynia behavior as measured by paw withdrawal threshold,[3]; 10 mg/kg PO daily,+++ (+++ indicates p < 0.001 vs disease control.)
same,rescue of the mechanical allodynia behavior as measured by paw withdrawal threshold,[3],significant rescue
same,Efficacy: rescue of thermal hyperalgesia behavior as measured by paw withdrawal latency,[4]; 0.156 mg/kg PO daily,NS
same,Efficacy: rescue of thermal hyperalgesia behavior as measured by paw withdrawal latency,[4]; 0.625 mg/kg PO daily,NS
same,Efficacy: rescue of thermal hyperalgesia behavior as measured by paw withdrawal latency,[4]; 2.5 mg/kg PO daily,++ (++ indicates p < 0.01 vs disease control.)
same,Efficacy: rescue of thermal hyperalgesia behavior as measured by paw withdrawal latency,[4]; 10 mg/kg PO daily,+++ (+++ indicates p < 0.001 vs disease control.)
same,rescue of thermal allodynia behavior as measured by paw withdrawal latency,[4],significant rescue

# From patent US20250275975A1, “Methods of Treating Neuropathies” (Athira Pharma, Inc., priority 2023, published 2025)
